Data taken from patent US7009053B2, “Quinoline derivatives as caspase-3 inhibitor, preparation for producing the same and pharmaceutical composition comprising the same” (Yungjin Pharmaceuticals Co., Ltd., priority 2002, dated 2006).
Where two headings read alike, the source gives them in different places.

Key:
Assay type in all cases: biochemical
[1] = target: T1, human recombinant caspase-3 enzyme (Homo sapiens, UniProt P42574); assay: Enzyme assay of caspase-3 inhibition (fluorogenic Ac-DEVD-AFC substrate)
T1 construct: each cDNA encoding p12 and p17 subunits of caspase-3 was PCR-amplified respectively and subcloned into a pET3-a expression vector; made in house; host or cells: E. coli BL21 (DE3), pET3-a vector
T1 sequence (P42574 29-175 limits assumed): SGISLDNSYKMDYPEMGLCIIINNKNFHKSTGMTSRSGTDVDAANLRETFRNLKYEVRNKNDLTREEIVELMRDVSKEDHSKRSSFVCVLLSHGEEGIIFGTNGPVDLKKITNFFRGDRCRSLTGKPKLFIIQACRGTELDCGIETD
T1 sequence (P42574 176-277 limits assumed): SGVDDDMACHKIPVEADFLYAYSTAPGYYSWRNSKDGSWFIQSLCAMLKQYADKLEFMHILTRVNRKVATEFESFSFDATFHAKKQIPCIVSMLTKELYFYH
Protocol: The active form of human recombinant caspase-3 enzyme was prepared from Escherichia coli (E.coli) heterologous expression system as described previously (Rotonda J. et al., Nat Struct Biol 3(7): 617–25, 1996). Briefly, each cDNA encoding p12 and p17 subunits of caspase-3 was PCR-amplified respectively and subcloned into a pET3-a expression vector (Novagen), which was followed by transfection into E. coli strain BL21 (DE3). The bacterial cultures (0.5 liters for each transfectant) were grown at 37° C. until logarithmic phase of cell growth and isopropyl-1-thio-β-D-galactopyranoside (IPTC) (Pharmacia) was then added to a final concentration of 0.5 mM. After 3 hr of incubation, the bacteria were pelleted and lysed in a lysis buffer (20 mM Tris hydrochloride pH 8.0, 1 mM EDTA, 2 mM dithiothreitol (DTT), 100 mM NaCl, 200 ug/ml of lysozyme) through sonication. After centrifugation, the pellets from each transfectants were dissolved in 6 M urea and were mixed and rapidly diluted 50 fold in 100 mM HEPES/KOH (pH 7.5), 10% sucrose, 0.1% CHAPS, 0.5 M NaCl, 10 mM DTT. The concentration of protein was determined with the Bradford method (Bio-Rad), with bovine serum albumin as the standard. To verify whether expected size of proteins were obtained, the cell lysates from each cDNA transfectants were analyzed on 14% SDS PAGE and visualized with Coomassie blue staining.
200 ul of the following assay solution was contained in each well of 96-well plate: 20 mM HEPES/KOH (pH 7.5), 10% sucrose, 10 mM DTT, 0.2 mM EDTA, 0.1% CHAPS, 200 ng of enzymes, and 2.5 uM of the substrate. The fluorogenic substrate […]-Asp-Glu-Val-Asp-7-amino-4-trifluoromethylcoumarin (Ac-DEVD-AFC) was purchased from Sigma (St Louis, Mo.) and dissolved in DMSO as a 2.5 mM stock solution and kept at −20° C. before use.
After 1 hr incubation at 37° C., the release of AFC (7-amino-4-trifluoromethyl-coumarin) was monitored in a fluorometric plate reader (Victor 1420). The excitation and emission wavelengths were 400 nm and 510 nm, respectively. The inhibitory effects of compounds on enzyme activities were determined with 2, 20 or 200 uM concentrations of the test compound run in triplicate tubes, and isotherms from three assays were calculated by computerized nonlinear regression analysis (GraphPad Prism Program, San Diego, Calif.) to yield IC50 values.

Caspase-1 = target: T2, Caspase-1 (Homo sapiens, UniProt P29466); assay: Assay of selective inhibitory activity, caspase-1; details: read-out: IC50 against caspase-1
T2 construct: purchased BIOMOL Research Laboratories Inc; host or cells: E. coli
T2 sequence (P29466 120-297 limits assumed): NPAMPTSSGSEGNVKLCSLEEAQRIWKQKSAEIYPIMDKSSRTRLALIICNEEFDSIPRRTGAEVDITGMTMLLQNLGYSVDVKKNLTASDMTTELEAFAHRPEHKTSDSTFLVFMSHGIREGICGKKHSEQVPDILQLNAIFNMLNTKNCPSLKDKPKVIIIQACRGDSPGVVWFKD
T2 sequence (P29466 317-404 limits assumed): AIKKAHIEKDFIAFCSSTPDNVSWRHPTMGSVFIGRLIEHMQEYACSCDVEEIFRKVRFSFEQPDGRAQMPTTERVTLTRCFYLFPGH
Protocol: (§1) To investigate the selectivity on caspase enzyme subtypes, the inhibitory effects of the compounds of this invention on several other members of the caspase family, caspase-1, 6, 7 and 8 were evaluated.
(§2) After 1 hr incubation at 37° C., the release of AFC (7-amino-4-trifluoromethyl-coumarin) was monitored in a fluorometric plate reader (Victor 1420). The excitation and emission wavelengths were 400 nm and 510 nm, respectively. Isotherms from three assays were calculated by computerized nonlinear regression analysis (GraphPad Prism Program, San Diego, Calif.) to yield IC50 values. Caspase-1, 6, 7 and 8 were purchased from BIOMOL Research Laboratories Inc. (Plymouth Meeting, Pa., USA).
(§3) Coumarin-based fluorogenic substrates for each enzyme were obtained from Sigma/RBI (St. Louis, Mo., USA). The compound used in the assay was 8-amino-4-(3-morpholine-4-yl-propylamino)-quinoline-3-carboxylic acid ethyl ester. The enzymatic activity of caspase-1, 6, 7 or 8 was determined by the same procedures as for the caspase-3 assay, except for enzyme or substrate (Table 2).

Caspase-6 = target: T3, Caspase-6 (Homo sapiens, UniProt P55212); assay: Assay of selective inhibitory activity, caspase-6; details: read-out: IC50 against caspase-6
T3 construct: purchased BIOMOL Research Laboratories Inc; host or cells: E. coli
T3 sequence (P55212 24-179 limits assumed): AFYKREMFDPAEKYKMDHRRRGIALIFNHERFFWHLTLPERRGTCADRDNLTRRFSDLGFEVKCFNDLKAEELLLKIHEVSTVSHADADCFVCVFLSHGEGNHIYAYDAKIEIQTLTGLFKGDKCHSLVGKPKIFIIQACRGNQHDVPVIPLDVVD
T3 sequence (P55212 194-293 limits assumed): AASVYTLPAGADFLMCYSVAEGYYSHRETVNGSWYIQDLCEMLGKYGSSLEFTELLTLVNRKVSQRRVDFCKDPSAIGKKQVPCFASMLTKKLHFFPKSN
Protocol: as §1, §2, §3

Caspase-7 = target: T4, Caspase-7 (Homo sapiens, UniProt P55210); assay: Assay of selective inhibitory activity, caspase-7; details: read-out: IC50 against caspase-7
T4 construct: purchased BIOMOL Research Laboratories Inc; host or cells: E. coli
T4 sequence (P55210 24-198 limits assumed): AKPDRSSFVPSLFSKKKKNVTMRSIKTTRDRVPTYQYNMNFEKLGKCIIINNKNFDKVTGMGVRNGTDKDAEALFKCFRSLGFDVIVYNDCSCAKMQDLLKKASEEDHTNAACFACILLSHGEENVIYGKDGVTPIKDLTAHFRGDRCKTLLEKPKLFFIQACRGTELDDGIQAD
T4 sequence (P55210 207-303 limits assumed): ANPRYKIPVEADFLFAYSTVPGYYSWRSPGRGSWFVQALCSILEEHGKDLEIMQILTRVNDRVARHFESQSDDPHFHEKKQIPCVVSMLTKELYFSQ
Protocol: as §1, §2, §3

Caspase-8 = target: T5, Caspase-8 (Homo sapiens, UniProt Q14790); assay: Assay of selective inhibitory activity, caspase-8; details: read-out: IC50 against caspase-8
T5 construct: purchased BIOMOL Research Laboratories Inc; host or cells: E. coli
T5 sequence (Q14790 217-374 limits assumed): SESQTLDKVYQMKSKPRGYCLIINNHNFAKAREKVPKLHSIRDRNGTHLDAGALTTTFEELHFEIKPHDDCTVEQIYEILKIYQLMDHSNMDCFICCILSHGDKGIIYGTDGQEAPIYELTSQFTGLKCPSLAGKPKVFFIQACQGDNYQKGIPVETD
T5 sequence (Q14790 385-479 limits assumed): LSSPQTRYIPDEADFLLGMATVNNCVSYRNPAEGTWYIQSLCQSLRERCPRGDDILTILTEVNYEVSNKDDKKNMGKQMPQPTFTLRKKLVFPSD
Protocol: as §1, §2, §3

IC50 ([1]; caspase-3, Table 1, tested at 2, 20 or 200 uM, read-out: IC50): 13.8 µM
inhibition at 20 µM ([1]; caspase-3 activity, at 20 uM): 92.3%
inhibitory activity against caspase-3 (in words) ([1]; compared to the reference compound): superior activity
IC50 ([1]; selectivity study, text b424, read-out: IC50 against caspase-3): 5.6 µM
IC50 (Caspase-1): ≥ 200 µM
IC50 (Caspase-6): ≥ 200 µM
IC50 (Caspase-7): 14.7 µM
IC50 (Caspase-8): ≥ 200 µM
SMILES: CCOC(=O)c1cnc2c(N)cccc2c1NCCCN1CCOCC1 [Example 22, 8-Amino-4-(3-morpholin-4-yl-propylamino)-quinoline-3-carboxylic acid ethyl ester]
